Results reported in patent US11814367B2, “Inhibitors of glycogen synthase 1 (GYS1) and methods of use thereof” (Maze Therapeutics, Inc., priority 2021, dated 2023).

Tests used:
[1] = molecular target: hGYS1 enzyme (recombinant hGYS1/GN1 protein) (Homo sapiens (Human), UniProt P13807); assay: GYS1 coupled enzyme assay (PK/LDH); format: biochemical; conditions: hGYS1/GN1 50 nM, UDP-Glucose 0.8 mM, G6P 1 mM; geometric mean of at least 2 runs
[2] = test system: hGYS1 enzyme / glycogen synthesis in HeLa cells; assay: GYS1 cell based assay (glycogen synthesis, Glucose-glo); set-up: species or system human; conditions: Homo sapiens, 24 h incubation, 20 mM glucose, geometric mean of at least 2 runs
Method in brief: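 HeLa cells starved 24 h in medium containing only 1× Glutamax were plated onto compound in medium with 20 mM glucose (1% DMSO final) for 24 h, 37 °C, 5% CO2. Acid lysates were Tris-quenched, glucoamylase-digested (pH 5.3, 1 h, 37 °C) and read by Glucose-glo luminescence. IC50 came from Hill fits, as geometric mean of ≥2 runs.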

[3] = molecular target: hGYS2 enzyme (recombinant hGYS2/GN1 protein) (Homo sapiens (Human), UniProt P54840); assay: GYS2 coupled enzyme assay (PK/LDH); format: biochemical; conditions: geometric mean of at least 2 assay runs on separate days, read-out: Avg_IC50
Chain of hGYS2 enzyme (recombinant hGYS2/GN1 protein) (P54840 whole entry): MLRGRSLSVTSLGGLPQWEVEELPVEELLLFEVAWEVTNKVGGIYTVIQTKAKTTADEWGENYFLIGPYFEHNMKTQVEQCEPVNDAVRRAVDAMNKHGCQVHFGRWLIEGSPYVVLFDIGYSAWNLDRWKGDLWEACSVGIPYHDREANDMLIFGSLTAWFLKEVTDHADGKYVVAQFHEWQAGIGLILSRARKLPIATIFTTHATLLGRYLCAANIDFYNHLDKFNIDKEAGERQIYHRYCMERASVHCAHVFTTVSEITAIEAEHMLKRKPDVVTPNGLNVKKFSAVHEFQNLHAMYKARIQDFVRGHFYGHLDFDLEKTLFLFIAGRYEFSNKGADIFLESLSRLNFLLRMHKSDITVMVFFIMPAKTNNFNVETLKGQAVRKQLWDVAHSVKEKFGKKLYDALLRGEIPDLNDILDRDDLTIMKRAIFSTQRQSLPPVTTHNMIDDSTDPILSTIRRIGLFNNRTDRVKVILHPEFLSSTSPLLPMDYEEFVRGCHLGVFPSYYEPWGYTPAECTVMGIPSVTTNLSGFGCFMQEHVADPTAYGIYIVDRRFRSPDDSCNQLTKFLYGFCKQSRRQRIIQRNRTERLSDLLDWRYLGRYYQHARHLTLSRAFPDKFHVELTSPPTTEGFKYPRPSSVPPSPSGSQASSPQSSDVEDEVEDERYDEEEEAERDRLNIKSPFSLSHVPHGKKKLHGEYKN
Chain of hGYS2 enzyme (recombinant hGYS2/GN1 protein) (P46976 whole entry partner): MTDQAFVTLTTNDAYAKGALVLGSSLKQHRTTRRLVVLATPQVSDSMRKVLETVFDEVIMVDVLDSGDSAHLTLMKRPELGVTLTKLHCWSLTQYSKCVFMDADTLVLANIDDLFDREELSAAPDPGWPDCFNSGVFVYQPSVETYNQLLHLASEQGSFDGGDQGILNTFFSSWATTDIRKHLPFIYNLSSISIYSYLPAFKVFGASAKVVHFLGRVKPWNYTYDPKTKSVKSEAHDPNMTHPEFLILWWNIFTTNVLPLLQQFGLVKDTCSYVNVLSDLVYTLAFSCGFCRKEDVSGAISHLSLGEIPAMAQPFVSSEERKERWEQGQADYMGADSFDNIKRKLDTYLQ
Method in brief: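 hGYS2/GN1 200 nM; UDP-Glc 2 mM; glycogen 0.2%; G6P 2 mM; PEP 2 mM, NADH 0.6 mM, PK/LDH 20 U/mL. 50 mM Tris pH 7.5, MgCl2, KCl, BSA, TCEP, 2.5% DMSO. Kinetic A340, 10 min. IC50 = geomean of ≥2 runs.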

Chain of hGYS1 enzyme (recombinant hGYS1/GN1 protein) (P13807 whole entry): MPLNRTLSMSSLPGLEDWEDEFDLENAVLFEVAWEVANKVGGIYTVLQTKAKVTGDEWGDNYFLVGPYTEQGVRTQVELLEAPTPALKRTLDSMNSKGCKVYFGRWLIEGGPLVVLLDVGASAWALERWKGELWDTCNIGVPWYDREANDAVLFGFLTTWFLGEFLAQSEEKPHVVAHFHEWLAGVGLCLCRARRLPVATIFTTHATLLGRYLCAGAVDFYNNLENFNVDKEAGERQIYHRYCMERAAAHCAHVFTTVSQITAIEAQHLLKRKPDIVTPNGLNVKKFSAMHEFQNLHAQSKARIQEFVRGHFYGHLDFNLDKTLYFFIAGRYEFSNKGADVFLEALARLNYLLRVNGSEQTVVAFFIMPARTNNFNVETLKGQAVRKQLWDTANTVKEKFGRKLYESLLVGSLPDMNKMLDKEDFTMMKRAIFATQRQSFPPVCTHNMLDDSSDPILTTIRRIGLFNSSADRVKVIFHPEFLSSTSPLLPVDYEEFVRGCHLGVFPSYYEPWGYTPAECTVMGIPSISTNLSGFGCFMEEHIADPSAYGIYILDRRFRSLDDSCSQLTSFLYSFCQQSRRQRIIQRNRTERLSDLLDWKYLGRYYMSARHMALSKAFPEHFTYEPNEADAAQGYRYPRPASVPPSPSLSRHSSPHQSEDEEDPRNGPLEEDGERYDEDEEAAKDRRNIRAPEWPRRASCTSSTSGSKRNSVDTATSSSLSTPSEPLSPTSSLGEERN
Chain of hGYS1 enzyme (recombinant hGYS1/GN1 protein) (P46976 whole entry partner): as the sequence (P46976 whole entry partner) above

Row | Compound | IC50 [1] | IC50 ([2]; HeLa, 24 h) | IC50 [3] | IC50 [2]
1 | CC(C)c1ccc(C(CC2CC2)NC(=O)[C@@H]2C[C@@H](F)CN2C(=O)Cc2cnn[nH]2)cc1F (single isomer, unassigned) [Compound 653, (2S,4R)-N-[(1S) or (1R)-2-cyclopropyl-1-[3-fluoro-4-(propan-2-yl)phenyl]ethyl]-4-fluoro-1-[2-(1H-1,2,3-triazol-5-yl)acetyl]pyrrolidine-2-carboxamide] | 0.262 µM | 3.75 µM | > 100 µM | 
2 | O=C(N[C@@H](c1ccccc1)c1ccc(C2CC(F)(F)C2)c(F)n1)[C@@H]1C[C@@H](F)CN1C(=O)Cc1ncco1 [Compound 505, (2S,4R)-N-[(S)-[5-(3,3-difluorocyclobutyl)-6-fluoropyridin-2-yl](phenyl)methyl]-4-fluoro-1-[2-(1,3-oxazol-2-yl)acetyl]pyrrolidine-2-carboxamide] | 0.02 µM | 0.35 µM | > 100 µM | 
3 | CC(C)c1c(F)cc([C@@H](NC(=O)[C@@H]2C[C@@H](F)CN2S(=O)(=O)Cc2cnn[nH]2)c2ccccc2)cc1F [Compound 659, (2S,4R)-1-(((1H-1,2,3-triazol-5-yl)methyl)sulfonyl)-N—((S)-(3,5-difluoro-4-isopropylphenyl)(phenyl)methyl)-4-fluoropyrrolidine-2-carboxamide] | 0.331 µM |  | 17.5 µM | 4.35 µM
4 | O=C(N[C@@H](c1ccccc1)c1ccc(C2CC2)c(F)c1)[C@@H]1C[C@@H](F)CN1C(=O)CNC(=O)N1CC(F)(F)C1 [Compound 495, (2S,4R)-N-[(S)-(4-cyclopropyl-3-fluorophenyl)(phenyl)methyl]-1-{2-[(3,3-difluoroazetidine-1-carbonyl)amino]acetyl}-4-fluoropyrrolidine-2-carboxamide] | 0.066 µM | 1.5 µM | > 100 µM | 
5 | CC(=O)N1C[C@H](F)C[C@H]1C(=O)NC(c1cccc(-c2ccn[nH]2)c1)c1ccc(C(C)C)c(F)n1 (single isomer, unassigned) [Compound 690, (2S,4R)-1-acetyl-4-fluoro-N-[(S) or (R)-[6-fluoro-5-(propan-2-yl)pyridin-2-yl][3-(1H-pyrazol-5-yl)phenyl]methyl] pyrrolidine-2-carboxamide] | 0.047 µM | 0.9 µM | > 100 µM | 
6 | O=C(N[C@@H](c1ccccc1)c1ccc(C2CC2)c(F)n1)[C@@H]1C[C@@H](F)CN1C(=O)Cn1nnnc1C(F)F [Compound 293, (2S,4R)-N-((S)-(5-cyclopropl-6-fluoropyridin-2-yl)(phenyl)methyl)-1-(2-(5-(difluoromethyl)-1H-tetrazol-1-yl)acetyl)-4-fluoropyrrolidine-2-carboxamide] | 0.038 µM | 0.66 µM | > 100 µM | 
7 | CC(C)c1ccc([C@@H](NC(=O)[C@@H]2CC[C@H](C)N2C(=O)Cc2cnn[nH]2)c2ccccc2)cc1F [Compound 323, (2S,5S)-N-[(S)-[3-fluoro-4-(propan-2-yl)phenyl](phenyl)methyl]-5-methyl-1-[2-(1H-1,2,3-triazol-5-yl)acetyl]pyrrolidine-2-carboxamide] | 0.074 µM | 0.9 µM | > 100 µM | 
8 | Cc1cc([C@@H](NC(=O)[C@@H]2C[C@@H](F)CN2C(=O)Cc2nnc(C(F)F)o2)c2ccccc2)ncc1C(C)C [Compound 602, (2S,4R)-1-(2-(5-(difluoromethyl)-1,3,4-oxadiazol-2-yl)acetyl)-4-fluoro-N—((S)-(5-isopropyl-4-methylpyridin-2-yl)(phenyl)methyl)pyrrolidine-2-carboxamide] | 0.092 µM | 0.76 µM | > 100 µM | 
9 | O=C(N[C@@H](c1ccccc1)c1ccc(C2CC2)c(F)n1)[C@@H]1C[C@@H](F)CN1C(=O)CNC(=O)N1CC(F)(F)C1 [Compound 315, (2S,4R)-N-[(S)-(5-cyclopropyl-6-fluoropyridin-2-yl)(phenyl)methyl]-1-{2-[(3,3-difluoroazetidine-1-carbonyl)amino]acetyl}-4-fluoropyrrolidine-2-carboxamide] | 0.023 µM | 0.73 µM | > 100 µM | 
10 | CCn1c(=O)ccn(CC(=O)N2C[C@H](F)C[C@H]2C(=O)N[C@@H](c2ccccc2)c2ccc(C3CC3)c(F)n2)c1=O [Compound 735, (2S,4R)-N-[(S)-(5-cyclopropyl-6-fluoropyridin-2-yl)(phenyl)methyl]-1-[2-(3-ethyl-2,4-dioxo-1,2,3,4-tetrahydropyrimidin-1 yl)acetyl]-4-fluoropyrrolidine-2-carboxamide] | 0.005 µM | 0.27 µM | > 100 µM | 
11 | Cc1cnc(CC(=O)N2C[C@H](F)C[C@H]2C(=O)N[C@@H](c2ccccc2)c2ccc(C3CC(F)(F)C3)c(F)n2)o1 [Compound 509, (2S,4R)-N-[(S)-[5-(3,3-difluorocyclobutyl)-6-fluoropyridin-2-yl](phenyl)methyl]-4-fluoro-1-[2-(5-methyl-1,3-oxazol-2-yl)acetyl]pyrrolidine-2-carboxamide] | 0.008 µM | 0.18 µM | > 100 µM | 
12 | CC1(c2ccc([C@@H](NC(=O)[C@@H]3C[C@@H](F)CN3C(=O)Cc3cnn[nH]3)c3ccccc3)cc2F)CC1 [Compound 558, (2S,4R)-4-fluoro-N-[(S)-[3-fluoro-4-(1-methylcyclopropyl)phenyl](phenyl)methyl]-1-[2-(1H-1,2,3-triazol-5-yl)acetyl]pyrrolidine-2-carboxamide] | 0.136 µM | 2.46 µM | > 100 µM | 
13 | CN1CCN(C(=O)OCC(=O)N2C[C@H](F)C[C@H]2C(=O)N[C@@H](c2ccccc2)c2ccc(C3CC3)c(F)c2)CC1 [Compound 445, 2-[(2S,4R)-2-{[(S)-(4-cyclopropyl-3-fluorophenyl)(phenyl)methyl]carbamoyl}-4-fluoropyrrolidin-1-yl]-2-oxoethyl 4-methylpiperazine-1-carboxylate] | 0.075 µM | 1.66 µM | > 100 µM | 

The next lines start with results.

Row | IC50 [1] | IC50 ([2]; HeLa, 24 h) | IC50 [3] | Compound | IC50 [2]
14 | 0.014 µM | 0.21 µM | > 100 µM | Cc1cn(CC(=O)N2C[C@H](F)C[C@H]2C(=O)N[C@@H](c2ccccc2)c2ccc(C(C)C)c(F)c2)nn1 [Compound 373, (2S,4R)-4-fluoro-N-[(S)-[3-fluoro-4-(propan-2-yl)phenyl](phenyl)methyl]-1-[2-(4-methyl-1H-1,2,3-triazol-1-yl)acetyl]pyrrolidine-2-carboxamide] | 
15 | 0.149 µM | 1.79 µM | > 100 µM | CC(C)c1ccc([C@@H](NC(=O)[C@@H]2C[C@@H](F)CN2C(=O)[C@H](C)NC(=O)N(C)C)c2ccccc2)nc1 [Compound 273, (2S,4R)-1-[(2S)-2-[(dimethylcarbamoyl)amino]propanoyl]-4-fluoro-N-[(S)-phenyl[5-(propan-2-yl)pyridin-2-yl]methyl]pyrrolidine-2-carboxamide] | 
16 | 0.063 µM | 0.96 µM | > 100 µM | CC(C)c1ccc([C@@H](NC(=O)[C@@H]2C[C@@H](F)CN2C(=O)Cn2nnnc2C(F)(F)F)c2ccccc2)cc1F [Compound 359] | 
17 | 0.029 µM | 0.7 µM | > 100 µM | O=C(N[C@@H](c1ccccc1)c1ccc(C2CC2)c(F)c1)[C@@H]1C[C@@H](F)CN1C(=O)CNc1cnccn1 [Compound 471, (2S,4R)-N-[(S)-(4-cyclopropyl-3-fluorophenyl)(phenyl)methyl]-4-fluoro-1-{2-[(pyrazin-2-yl)amino]acetyl}pyrrolidine-2-carboxamide] | 
18 | 0.01 µM | 0.33 µM | > 100 µM | Cn1cc(CC(=O)N2C[C@H](F)C[C@H]2C(=O)N[C@@H](c2ccccc2)c2ccc(C3(C)CC3)c(F)n2)c2ccccc21 [Compound 592, (2S,4R)-4-fluoro-N-[(S)-[6-fluoro-5-(1-methylcyclopropyl)pyridin-2-yl](phenyl)methyl]-1-[2-(1-methyl-1H-indol-3-yl)acetyl]pyrrolidine-2-carboxamide] | 
19 | 0.091 µM | 1.48 µM | > 100 µM | Cc1nnn(CC(=O)N2C[C@H](F)C[C@H]2C(=O)N[C@@H](c2ccccc2)c2ccc(C3CC3)c(F)c2)n1 [Compound 433, (2S,4R)-N-[(S)-(4-cyclopropyl-3-fluorophenyl)(phenyl)methyl]-4-fluoro-1-[2-(5-methyl-2H-1,2,3,4-tetrazol-2-yl)acetyl]pyrrolidine-2-carboxamide] | 
20 | 0.034 µM | 0.37 µM | > 100 µM | CC(C)c1ccc([C@@H](NC(=O)[C@@H]2C[C@@H](F)CN2C(=O)Cc2ccnnc2)c2ccccc2)cc1F [Compound 342, (2S,4R)-4-fluoro-N-[(S)-[3-fluoro-4-(propan-2-yl)phenyl](phenyl)methyl]-1-[2-(pyridazin-4-yl)acetyl]pyrrolidine-2-carboxamide] | 
21 | 0.008 µM | 0.12 µM | > 100 µM | CC(C)c1ccc([C@@H](NC(=O)[C@@H]2C[C@@H](F)CN2C(=O)Cn2cnc3ccccc32)c2ccccc2)cc1 [Compound 77, (2S,4R)-1-[2-(1H-1,3-benzodiazol-1-yl)acetyl]-4-fluoro-N-[(S)-phenyl[4-(propan-2-yl)phenyl]methyl]pyrrolidine-2-carboxamide] | 
